Reference: patent US20200263231A1, “Fluorogenic dyes for high sensitivity DNA detection” (LIFE TECHNOLOGIES CORPORATION, priority 2016, published 2020)

Key:
[1] = tested on: calf thymus DNA; experiment: Fluorescence emission and enhancement of compounds bound to calf thymus DNA; format: binding; conditions: 0.8 μM compound with 500 ng/ml calf thymus DNA in TE buffer; for Emission Max: excited at 488 nm; for Fluorescence Enhancement: emission area 500-715 nm compared to compound 1, defined as 1000-fold
Experimental: Compounds 1-65 were prepared and their fluorescence absorption and emission characteristics were measured. Intrinsic fluorescence of the compounds only (without DNA) was negligible. Emission spectra for the compounds bound to dsDNA were obtained by incubating 0.8 μM compound with 500 ng/ml calf thymus DNA in TE buffer (10 mM Tris-HCl, pH 7.5, 1 mM EDTA) in a final volume of 3 ml. Measurements were made using PerkinElmer LS 55 (F-11) Fluorescence spectrometer. Samples were excited at 488 nm and fluorescence emission was measured with emission slit widths of 2.5 nm. Absorption maxima were determined according to standard techniques.
Fluorescence enhancement measurements of the compounds were obtained by incubating 0.8 μM compound with 500 ng/ml calf thymus DNA with compounds at a final concentration of 0.8 μM in TE buffer. Compound 1 was used as an internal standard to control for variability (e.g., in excitation light intensity). The area-under-curve of fluorescence emission spectra from 500 nm to 715 nm was calculated, and compared to that of compound 1, which was defined as having 1000-fold fluorescence enhancement relative to fluorescence of the compound alone.

[2] = UV/VIS absorption spectra; format: physicochemical; conditions: 10 μM compound in 50 mM potassium phosphate buffer (pH 7.0)
Experimental: The UV/VIS absorption spectra were obtained with 10 μM compound solution in 50 mM potassium phosphate buffer (pH 7.0) in a final volume of 3 mL. Measurements were carried out using a Lambda 245 spectrophotometer from Perkin Elmer.

CCN(CC[N+](C)(C)CC)C1=C/C(=C/c2sc3ccccc3[n+]2C)c2ccccc2N1c1ccccc1.[Cl-].[I-] [Compound 30]
Emission Max [1]: 526 nm | Fluorescence Enhancement [1]: 638 fold | Absorbance Max [2]: 506 nm

C[n+]1c(/C=C2/C=C(n3cnc4ccccc43)N(c3ccccc3)c3ccccc32)sc2ccccc21.[Cl-] [Compound 63]
Emission Max [1]: 543 nm | Fluorescence Enhancement [1]: 42 fold | Absorbance Max [2]: 518 nm

CCN(CCN(C)C)C1=C/C(=C/c2sc3ccccc3[n+]2C)c2ccccc2N1c1ccccc1.[Cl-] [Compound 28]
Emission Max [1]: 525 nm | Fluorescence Enhancement [1]: 672 fold | Absorbance Max [2]: 504 nm

CCCCN(CCC[N+](C)(C)CC)C1=CC(=Cc2sc3ccccc3[n+]2C)c2ccc(OC)cc2N1c1ccccc1.[I-].[I-] [Compound 36]
Emission Max [1]: 521 nm | Fluorescence Enhancement [1]: 1071 fold | Absorbance Max [2]: 489 nm

CCCN(CCC[N+](C)(C)CC)C1=CC(=Cc2sc3ccccc3[n+]2C)c2ccc(OC)cc2N1c1ccccc1.[I-].[I-] [Compound 43]
Emission Max [1]: 519 nm | Fluorescence Enhancement [1]: 1033 fold | Absorbance Max [2]: 494 nm

CN(C)CCCC1=C/C(=C/c2sc3ccccc3[n+]2C)c2ccccc2N1c1ccccc1 [Compound 64]
Emission Max [1]: 529 nm | Fluorescence Enhancement [1]: 204 fold | Absorbance Max [2]: 527 nm

CCCCN(CCCN(C)C)C1=C/C(=C/c2sc3ccccc3[n+]2C)c2ccccc2N1c1ccccc1.[I-] [Compound 8]
Emission Max [1]: 525 nm | Fluorescence Enhancement [1]: 946 fold | Absorbance Max [2]: 495 nm

CCCCN(CCC[N+](C)(C)Cc1ccccc1)C1=C/C(=C/c2sc3ccccc3[n+]2C)c2ccccc2N1c1ccccc1.[Br-].[I-] [Compound 13]
Emission Max [1]: 523 nm | Fluorescence Enhancement [1]: 922 fold | Absorbance Max [2]: 496 nm

CCCN(CCC[N+](C)(C)Cc1ccccc1)C1=C/C(=C/c2sc3ccccc3[n+]2C)c2ccc(OC)cc2N1c1ccccc1.[Br-].[I-] [Compound 46]
Emission Max [1]: 520 nm | Fluorescence Enhancement [1]: 931 fold | Absorbance Max [2]: 494 nm

CCCN(CCC[N+](C)(C)CCO)C1=C/C(=C/c2sc3ccccc3[n+]2C)c2ccccc2N1c1ccccc1.[I-].[I-] [Compound 5]
Emission Max [1]: 523 nm | Fluorescence Enhancement [1]: 954 fold | Absorbance Max [2]: 501 nm

CCCCN(CCC[N+](C)(C)CCO)C1=CC(=Cc2sc3ccccc3[n+]2C)c2ccc(OC)cc2N1c1ccccc1.[I-].[I-] [Compound 38]
Emission Max [1]: 520 nm | Fluorescence Enhancement [1]: 1089 fold | Absorbance Max [2]: 489 nm

CCCCN(CCC[N+](C)(C)Cc1cccc(OC)c1)C1=C/C(=C/c2sc3ccccc3[n+]2C)c2ccccc2N1c1ccccc1.[Br-].[I-] [Compound 14]
Emission Max [1]: 526 nm | Fluorescence Enhancement [1]: 907 fold | Absorbance Max [2]: 497 nm

CCCN(CCCN(C)C)C1=C/C(=C/c2sc3ccccc3[n+]2C)c2ccccc2N1c1ccccc1 [Compound 1, reference compound]
Emission Max [1]: 523 nm | Fluorescence Enhancement [1]: 1000 fold | Absorbance Max [2]: 500 nm

CCN(CCC[N+](C)(C)CCO)C1=C/C(=C/c2sc3ccccc3[n+]2C)c2ccccc2N1c1ccccc1.[I-].[I-] [Compound 18]
Emission Max [1]: 524 nm | Fluorescence Enhancement [1]: 882 fold | Absorbance Max [2]: 496 nm

CCN(CCC[N+](C)(C)Cc1cccc(OC)c1)C1=CC(=Cc2sc3ccccc3[n+]2C)c2ccc(OC)cc2N1c1ccccc1.[Br-].[I-] [Compound 54]
Emission Max [1]: 517 nm | Fluorescence Enhancement [1]: 1008 fold | Absorbance Max [2]: 490 nm

CCCN(CCC[N+](C)(C)Cc1cccc(OC)c1)C1=CC(=Cc2sc3ccccc3[n+]2C)c2ccc(OC)cc2N1c1ccccc1.[Br-].[I-] [Compound 47]
Emission Max [1]: 518 nm | Fluorescence Enhancement [1]: 1038 fold | Absorbance Max [2]: 495 nm

CCN(CCC[N+](C)(C)C)C1=CC(=Cc2sc3ccccc3[n+]2C)c2ccc(OC)cc2N1c1ccccc1.[I-].[I-] [Compound 49]
Emission Max [1]: 520 nm | Fluorescence Enhancement [1]: 1035 fold | Absorbance Max [2]: 490 nm

CCCN(CCC[N+](C)(C)CC)C1=C/C(=C/c2sc3ccccc3[n+]2C)c2ccccc2N1c1ccccc1.[Cl-].[I-] [Compound 3]
Emission Max [1]: 524 nm | Fluorescence Enhancement [1]: 997 fold | Absorbance Max [2]: 501 nm

CCC[N+](C)(C)CCN(CC)C1=C/C(=C/c2sc3ccccc3[n+]2C)c2ccc(OC)cc2N1c1ccccc1.[I-].[I-] [Compound 58]
Emission Max [1]: 521 nm | Fluorescence Enhancement [1]: 874 fold | Absorbance Max [2]: 496 nm

CCN(CCC[N+](C)(C)Cc1ccccc1)C1=C/C(=C/c2sc3ccccc3[n+]2C)c2ccccc2N1c1ccccc1.[Br-].[I-] [Compound 19]
Emission Max [1]: 524 nm | Fluorescence Enhancement [1]: 884 fold | Absorbance Max [2]: 497 nm

CCC[N+](C)(C)CCCN(CC)C1=CC(=Cc2sc3ccccc3[n+]2C)c2ccc(OC)cc2N1c1ccccc1.[I-].[I-] [Compound 51]
Emission Max [1]: 520 nm | Fluorescence Enhancement [1]: 1016 fold | Absorbance Max [2]: 490 nm

CCN(CCC[N+](C)(C)Cc1ccccc1)C1=C/C(=C/c2sc3ccccc3[n+]2C)c2ccc(OC)cc2N1c1ccccc1.[Br-].[I-] [Compound 53]
Emission Max [1]: 520 nm | Fluorescence Enhancement [1]: 1011 fold | Absorbance Max [2]: 490 nm

CCN(CCC[N+](C)(C)C)C1=C/C(=C/c2sc3ccccc3[n+]2C)c2ccccc2N1c1ccccc1.[I-].[I-] [Compound 16]
Emission Max [1]: 523 nm | Fluorescence Enhancement [1]: 863 fold | Absorbance Max [2]: 496 nm

CCN(CC[N+](C)(C)Cc1ccccc1)C1=C/C(=C/c2sc3ccccc3[n+]2C)c2ccc(OC)cc2N1c1ccccc1.[I-].[I-] [Compound 60]
Emission Max [1]: 522 nm | Fluorescence Enhancement [1]: 878 fold | Absorbance Max [2]: 500 nm

CCCN(CCC[N+](C)(C)Cc1ccccc1)C1=C/C(=C\c2sc3ccccc3[n+]2C)c2ccccc2N1c1ccccc1.[Br-].[Cl-] [Compound 6]
Emission Max [1]: 523 nm | Fluorescence Enhancement [1]: 979 fold | Absorbance Max [2]: 502 nm

COc1cccc(C[N+](C)(C)CCCN(C)C2=C/C(=C/c3sc4ccccc4[n+]3C)c3ccccc3N2c2ccccc2)c1.[Br-].[I-] [Compound 27]
Emission Max [1]: 521 nm | Fluorescence Enhancement [1]: 668 fold | Absorbance Max [2]: 498 nm

CN(CCC[N+](C)(C)CCO)C1=C/C(=C/c2sc3ccccc3[n+]2C)c2ccccc2N1c1ccccc1.[I-].[I-] [Compound 25]
Emission Max [1]: 523 nm | Fluorescence Enhancement [1]: 640 fold | Absorbance Max [2]: 497 nm

CCN(CCC[N+](C)(C)CC)C1=CC(=Cc2sc3ccccc3[n+]2C)c2ccc(OC)cc2N1c1ccccc1.[I-].[I-] [Compound 50]
Emission Max [1]: 519 nm | Fluorescence Enhancement [1]: 1020 fold | Absorbance Max [2]: 490 nm

CCN(CC[N+](C)(C)Cc1ccccc1)C1=C/C(=C/c2sc3ccccc3[n+]2C)c2ccccc2N1c1ccccc1.[Br-].[I-] [Compound 32]
Emission Max [1]: 527 nm | Fluorescence Enhancement [1]: 672 fold | Absorbance Max [2]: 507 nm
